Here are results for 17 compounds from patent publication US11753407B2, “Compounds for treating spinal muscular atrophy” (PTC Therapeutics, Inc., priority 2012, dated 2023).

Series [1] has as its system SMN2 minigene mRNA (SMN2-A minigene) in HEK293H cells. The experiment in a line: SMN2 minigene mRNA splicing RT-qPCR assay in cultured cells. Format: cell-based, human. The settings on record: Homo sapiens, HEK293-H; concentration increasing full length SMN2 mRNA 1.5-fold relative to vehicle-treated cells; HEK293H cells with SMN2-A minigene, 24 hours, 7-point concentration data; read-out: EC1.5x for production of full length SMN2 mRNA. In a few lines: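 Cells are seeded, left to attach 4-6 h, then dosed with test compound across seven concentrations and incubated 24 h. Lysates undergo RT-qPCR with primers/probe specific to the exon 7-containing minigene transcript, co-amplified with GAPDH. Fold change over vehicle is calculated, and EC1.5× marks the 1.5-fold point.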

For series [2], the system named is Smn protein in SMA patient fibroblast cells (GM03813). The experiment in a line: Smn protein assay in cultured cells (SMN HTRF). Format: cell-based, human. Conditions: SMA patient fibroblast cells, 48 hours; for maximum fold (Fold) increase of Smn protein: 7-point concentration data, fold relative to vehicle control; for EC1.5x for Smn protein expression: 7-point concentration curve, SMN HTRF, concentration producing 1.5 times Smn protein vs DMSO vehicle control. An outline of the steps:
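Patient-derived SMA fibroblasts are plated, given compound for 48 h, then lysed in RIPA buffer with protease inhibitors. Lysate Smn is detected by an anti-SMN d2/kryptate HTRF pair incubated overnight. The normalized ΔF is divided by the vehicle ΔF to give fold change, from which EC1.5× and maximum fold are taken.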
Background: Time-resolved FRET reads energy transfer from a long-lived donor to a nearby acceptor.

For orientation: melting point means the temperature, or range, at which the solid turns liquid. Turning to `COc1ccc(-c2cc(=O)n3cc(N4CCC(CN(C)C)CC4)ccc3n2)cc1F` [Compound 226, 7-{4-[(dimethylamino)methyl]piperidin-1-yl}-2-(3-fluoro-4-methoxyphenyl)-4H-pyrido[1,2-a]pyrimidin-4-one], the melting point lay in the range of 178 to 185 °C. For the same compound, in series [1], the EC (1.5-fold increase) was in the range of 0.3 to 1 µM. In addition, the “maximum fold (Fold) increase of Smn protein” value (shortened to “maximum fold (Fold) increase”) in series [2] is on record as “* (A maximum fold increase of ≤1.2 is indicated by one star (*))”.
In the case of `CCc1nc(C)cn2nc(-c3cc(=O)n4cc(C5=CC(C)(C)NC(C)(C)C5)ccc4n3)cc12` [Compound 745, 2-(4-ethyl-6-methylpyrazolo[1,5-a]pyrazin-2-yl)-7-(2,2,6,6-tetramethyl-1,2,3,6-tetrahydropyridin-4-yl)-4H-pyrido[1,2-a]pyrimidin-4-one], the melting point was in the range of 255 to 258 °C. Besides, the EC (1.5-fold increase) in series [1] was below 0.1 µM. Further, in series [2], the “EC1.5x for Smn protein expression” value is “**** (an EC1.5x≤0.3 μM is indicated by four stars (****))” and the “maximum fold (Fold) increase” value is “***** (a fold increase >1.65 is indicated by five stars (*****))”.
`C[C@@H]1CN(c2ccc3nc(-c4ccc5c(cnn5C)c4)cc(=O)n3c2)CCN1` [Compound 545, 2-(1-methyl-1H-indazol-5-yl)-7-[(3R)-3-methylpiperazin-1-yl]-4H-pyrido[1,2-a]pyrimidin-4-one] came in with a melting point of 190 to 192 °C. The EC (1.5-fold increase) in series [1] was in the range of 0.1 to 0.3 µM. In series [2], the “EC1.5x for Smn protein expression” value is “**** (an EC1.5x≤0.3 μM is indicated by four stars (****))” and the “maximum fold (Fold) increase” value is “***** (a fold increase >1.65 is indicated by five stars (*****))”.
`Cc1cn2cc(-c3cc(=O)n4cc(N5C[C@@H](C)N[C@@H](C)C5)ccc4n3)cc(F)c2n1` [Compound 210, 7-[(3R,5S)-3,5-dimethylpiperazin-1-yl]-2-(8-fluoro-2-methylimidazo[1,2-a]pyridin-6-yl)-4H-pyrido[1,2-a]pyrimidin-4-one]: the melting point was 255 to 259 °C. The EC (1.5-fold increase) in series [1] was below 0.1 µM. Moreover, in series [2], the “EC1.5x for Smn protein expression” value is “**** (an EC1.5x≤0.3 μM is indicated by four stars (****))”; the “maximum fold (Fold) increase” value was “**** (a fold increase between >1.5 and ≤1.65 is indicated by four stars (****))”.
`CCc1nc(C)cn2nc(-c3cc(=O)n4cc(N5CCN(CCO)CC5)ccc4n3)cc12` [Compound 549, 2-(4-ethyl-6-methylpyrazolo[1,5-a]pyrazin-2-yl)-7-[4-(2-hydroxyethyl)piperazin-1-yl]-4H-pyrido[1,2-a]pyrimidin-4-one]: the melting point was in the range of 240 to 242 °C. The EC (1.5-fold increase) in series [1] is below 0.1 µM. Further, in series [2], the “EC1.5x for Smn protein expression” value is reported as “**** (an EC1.5x≤0.3 μM is indicated by four stars (****))” and the “maximum fold (Fold) increase” value is on record as “***** (a fold increase >1.65 is indicated by five stars (*****))”.
The compound `COc1c(-c2cc(=O)n3cc(N4CCNCC4)ccc3n2)cccc1C(F)(F)F` [Compound 78, 2-[2-methoxy-3-(trifluoromethyl)phenyl]-7-(piperazin-1-yl)-4H-pyrido[1,2-a]pyrimidin-4-one] gave a melting point of 194 to 200 °C. For the same compound, in series [1], the EC (1.5-fold increase) was 1 to 3 µM. Besides, the “maximum fold (Fold) increase” value in series [2] is “* (A maximum fold increase of ≤1.2 is indicated by one star (*))”.
In turn, `CCc1cc(-c2cc(=O)n3cc(N4CCN(C)[C@H](C)C4)ccc3n2)cn2cc(C)nc12` [Compound 700, 7-[(3R)-3,4-dimethylpiperazin-1-yl]-2-(8-ethyl-2-methylimidazo[1,2-a]pyridin-6-yl)-4H-pyrido[1,2-a]pyrimidin-4-one] returned a melting point of 217 to 220 °C. The EC (1.5-fold increase) in series [1] was below 0.1 µM. In series [2], the “EC1.5x for Smn protein expression” value is listed as “**** (an EC1.5x≤0.3 μM is indicated by four stars (****))” and the “maximum fold (Fold) increase” value was “***** (a fold increase >1.65 is indicated by five stars (*****))”.
`CCN1CCC(c2ccc3nc(-c4cc(C)c5nc(C)cn5c4)cc(=O)n3c2)CC1` [Compound 615, 2-(2,8-dimethylimidazo[1,2-a]pyridin-6-yl)-7-(1-ethylpiperidin-4-yl)-4H-pyrido[1,2-a]pyrimidin-4-one] showed a melting point of 202 to 204 °C. Moreover, the EC (1.5-fold increase) in series [1] was below 0.1 µM. In series [2], the “EC1.5x for Smn protein expression” value was “**** (an EC1.5x≤0.3 μM is indicated by four stars (****))”; the “maximum fold (Fold) increase” value was “**** (a fold increase between >1.5 and ≤1.65 is indicated by four stars (****))”.
`CN1CCC(c2ccc3nc(-c4ccc5nn(C)cc5c4)cc(=O)n3n2)CC1` [Compound 522, 2-(2-methyl-2H-indazol-5-yl)-7-(1-methylpiperidin-4-yl)-4H-pyrimido[1,2-b]pyridazin-4-one] registered a melting point of 260 to 262 °C. In series [1], the EC (1.5-fold increase) is below 0.1 µM. Further, in series [2], the “EC1.5x for Smn protein expression” value is “*** (an EC1.5× between >0.3 μM and ≤1 μM is indicated by three stars (***))”; the “maximum fold (Fold) increase” value is reported as “***** (a fold increase >1.65 is indicated by five stars (*****))”.
Consider `Cc1cn2nc(-c3cc(=O)n4cc(N5CC[C@@H](CN(C)C)C5)ccc4n3)cc2c(C)n1` [Compound 770, 7-{(3S)-3-[(dimethylamino)methyl]pyrrolidin-1-yl}-2-(4,6-dimethylpyrazolo[1,5-a]pyrazin-2-yl)-4H-pyrido[1,2-a]pyrimidin-4-one], for which the melting point fell in the range of 239 to 241 °C. In addition, in series [1], the EC (1.5-fold increase) was below 0.1 µM. Further, in series [2], the “EC1.5x for Smn protein expression” value was “*** (an EC1.5× between >0.3 μM and ≤1 μM is indicated by three stars (***))”; the “maximum fold (Fold) increase” value is “**** (a fold increase between >1.5 and ≤1.65 is indicated by four stars (****))”.
Take `Cn1cc2cc(-c3cc(=O)n4cc(C5CCNCC5)ccc4n3)ccc2n1` [Compound 606, 2-(2-methyl-2H-indazol-5-yl)-7-(piperidin-4-yl)-4H-pyrido[1,2-a]pyrimidin-4-one]: the melting point was in the range of 194 to 196 °C. In addition, the EC (1.5-fold increase) in series [1] was below 0.1 µM. Further, in series [2], the “EC1.5x for Smn protein expression” value is “** (an EC1.5× between >1 μM and ≤3 μM is indicated by two stars (**))”; the “maximum fold (Fold) increase” value is “**** (a fold increase between >1.5 and ≤1.65 is indicated by four stars (****))”.
Turning to `COCCN1CCN(c2ccc3nc(-c4cc(F)c5nc(C)cn5c4)cc(=O)n3c2)CC1` [Compound 385, 2-(8-fluoro-2-methylimidazo[1,2-a]pyridin-6-yl)-7-[4-(2-methoxyethyl)piperazin-1-yl]-4H-pyrido[1,2-a]pyrimidin-4-one], the melting point fell in the range of 258 to 262 °C. For the same compound, the EC (1.5-fold increase) in series [1] was below 0.1 µM. In addition, in series [2], the “EC1.5x for Smn protein expression” value is “*** (an EC1.5× between >0.3 μM and ≤1 μM is indicated by three stars (***))”; the “maximum fold (Fold) increase” value is listed as “***** (a fold increase >1.65 is indicated by five stars (*****))”.
Compound `Cc1ccc(-c2cc(=O)n3cc(N4CCN[C@@H](C)C4)ccc3n2)cc1F` [Compound 158, 2-(3-fluoro-4-methylphenyl)-7-[(3S)-3-methylpiperazin-1-yl]-4H-pyrido[1,2-a]pyrimidin-4-one] showed a melting point of 175 to 178 °C. In addition, the EC (1.5-fold increase) in series [1] was in the range of 1 to 3 µM. Also, the “maximum fold (Fold) increase” value in series [2] was “* (A maximum fold increase of ≤1.2 is indicated by one star (*))”.
With `CCN1CC=C(c2ccc3nc(-c4cc5c(C)nc(C)cn5n4)cc(=O)n3c2)CC1` [Compound 351, 2-(4,6-dimethylpyrazolo[1,5-a]pyrazin-2-yl)-7-(1-ethyl-1,2,3,6-tetrahydropyridin-4-yl)-4H-pyrido[1,2-a]pyrimidin-4-one], the melting point fell in the range of 202 to 204 °C. The EC (1.5-fold increase) in series [1] was below 0.1 µM. For the same compound, in series [2], the “EC1.5x for Smn protein expression” value is given as “**** (an EC1.5x≤0.3 μM is indicated by four stars (****))” and the “maximum fold (Fold) increase” value is listed as “***** (a fold increase >1.65 is indicated by five stars (*****))”.
`CCCN1CCC(c2ccc3nc(-c4cc5c(CC)nc(C)cn5n4)cc(=O)n3c2)CC1` [Compound 660, 2-(4-ethyl-6-methylpyrazolo[1,5-a]pyrazin-2-yl)-7-(1-propylpiperidin-4-yl)-4H-pyrido[1,2-a]pyrimidin-4-one] returned a melting point of 203 to 204 °C. Besides, in series [1], the EC (1.5-fold increase) was below 0.1 µM. Further, in series [2], the “EC1.5x for Smn protein expression” value was “**** (an EC1.5x≤0.3 μM is indicated by four stars (****))”; the “maximum fold (Fold) increase” value is “**** (a fold increase between >1.5 and ≤1.65 is indicated by four stars (****))”.
`COc1ccc(-c2cc(=O)n3cc(OC4CCNCC4)ccc3n2)cc1OC` [Cpd 237, 2-(3,4-dimethoxyphenyl)-7-(piperidin-4-yloxy)-4H-pyrido[1,2-a]pyrimidin-4-one] returned a melting point of 221 to 224 °C. The EC (1.5-fold increase) in series [1] is 1 to 3 µM. Further, the “maximum fold (Fold) increase” value in series [2] was “*** (a fold increase between >1.35 and ≤1.5 is indicated by three stars (***))”.
For the compound `Cc1nc2cc(-c3cc(=O)n4cc(N5CCNCC5)ccc4n3)ccc2s1` [Compound 136, 2-(2-methyl-1,3-benzothiazol-5-yl)-7-(piperazin-1-yl)-4H-pyrido[1,2-a]pyrimidin-4-one], the melting point fell in the range of 228 to 230 °C. In addition, the EC (1.5-fold increase) in series [1] was below 0.1 µM. In series [2], the “EC1.5x for Smn protein expression” value was “**** (an EC1.5x≤0.3 μM is indicated by four stars (****))” and the “maximum fold (Fold) increase” value is given as “***** (a fold increase >1.65 is indicated by five stars (*****))”.
